# From ChEMBL document CHEMBL1201862, “PubChem BioAssay data set” (2004)
#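 Cells were grown in 96-well plates and exposed to each compound for 48 hours at five concentrations; endpoints were interpolated linearly between bracketing concentrations, or set to the highest concentration if not reached. Abbreviation: GI50, concentration required for 50% inhibition of growth.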 Calls of active or inactive are those of the source. No stated cut-off is given here; in the data, active = GI50 up to about 1.1 µM and inactive = higher.
# Tests used:
# Assay in all cases: NCI tumour cell line growth inhibition, 48 h
# ACHN = tested on: ACHN
# CAKI-1 = tested on: CAKI-1
# COLO 205 = tested on: COLO 205
# EKVX = tested on: EKVX
# HL-60 = tested on: HL-60
# HOP-92 = tested on: HOP-92
# K562 = tested on: K562
# M14 = tested on: M14
# Malme-3M = tested on: Malme-3M
# NCI-H226 = tested on: NCI-H226
# NCI/ADR-RES = tested on: NCI/ADR-RES
# OVCAR-4 = tested on: OVCAR-4
# OVCAR-5 = tested on: OVCAR-5
# OVCAR-8 = tested on: OVCAR-8
# PC-3 = tested on: PC-3
# SK-MEL-2 = tested on: SK-MEL-2
# SNB-75 = tested on: SNB-75
# SW-620 = tested on: SW-620
# UACC-62 = tested on: UACC-62
SMILES,GI50 (ACHN),GI50 (CAKI-1),GI50 (COLO 205),GI50 (EKVX),GI50 (HL-60),GI50 (HOP-92),GI50 (K562),GI50 (M14),GI50 (Malme-3M),GI50 (NCI-H226),GI50 (NCI/ADR-RES),GI50 (OVCAR-4),GI50 (OVCAR-5),GI50 (OVCAR-8),GI50 (PC-3),GI50 (SK-MEL-2),GI50 (SNB-75),GI50 (SW-620),GI50 (UACC-62)
CC1=NN(c2ccc(S(=O)(=O)O)cc2)C(=O)/C1=C/c1ccc(Cl)cc1.c1ccncc1,> 100 µM (inactive),> 100 µM (inactive),> 100 µM (inactive),> 100 µM (inactive),> 100 µM (inactive),> 100 µM (inactive),> 100 µM (inactive),> 100 µM (inactive),> 100 µM (inactive),> 100 µM (inactive),> 100 µM (inactive),> 100 µM (inactive),> 100 µM (inactive),> 100 µM (inactive),> 100 µM (inactive),> 100 µM (inactive),> 100 µM (inactive),> 100 µM (inactive),> 100 µM (inactive)
Cc1ccc2nc(-c3ccccc3)c(N=O)n2c1,46.9 µM (inactive),37.1 µM (inactive),35.7 µM (inactive),20.5 µM (inactive),,77.1 µM (inactive),91.2 µM (inactive),68.2 µM (inactive),29.5 µM (inactive),29.1 µM (inactive),46.2 µM (inactive),26.2 µM (inactive),43.5 µM (inactive),41 µM (inactive),62.7 µM (inactive),> 100 µM (inactive),76.7 µM (inactive),53.6 µM (inactive),22.6 µM (inactive)
CC(=O)OCC(OC(C)=O)C(OC(C)=O)C(OC(C)=O)C(/C=N\Nc1nc2ccccc2c(=O)[nH]1)OC(C)=O (stereo unspecified),> 100 µM (inactive),> 100 µM (inactive),> 100 µM (inactive),54.7 µM (inactive),> 100 µM (inactive),> 100 µM (inactive),> 100 µM (inactive),> 100 µM (inactive),> 100 µM (inactive),> 100 µM (inactive),> 100 µM (inactive),,> 100 µM (inactive),> 100 µM (inactive),> 100 µM (inactive),> 100 µM (inactive),27.6 µM (inactive),> 100 µM (inactive),> 100 µM (inactive)
O=C(NCc1cccs1)OC1CC2CCC1C2 (stereo unspecified),> 100 µM (inactive),> 100 µM (inactive),> 100 µM (inactive),> 100 µM (inactive),> 100 µM (inactive),> 100 µM (inactive),> 100 µM (inactive),> 100 µM (inactive),> 100 µM (inactive),> 100 µM (inactive),> 100 µM (inactive),> 100 µM (inactive),> 100 µM (inactive),> 100 µM (inactive),> 100 µM (inactive),> 100 µM (inactive),,> 100 µM (inactive),> 100 µM (inactive)
COc1c(Cl)ccc(Cl)c1-c1nnc(-c2c(Cl)c(Cl)c(Cl)c(Cl)c2-c2nc3cc(C(=O)c4ccccc4)ccc3[nH]2)o1,> 100 µM (inactive),> 100 µM (inactive),21.9 µM (inactive),45.4 µM (inactive),34.5 µM (inactive),53.7 µM (inactive),28.9 µM (inactive),50.9 µM (inactive),47.1 µM (inactive),26.5 µM (inactive),28.3 µM (inactive),43.5 µM (inactive),> 100 µM (inactive),> 100 µM (inactive),46 µM (inactive),37.7 µM (inactive),33.5 µM (inactive),44.1 µM (inactive),
C[C@H]1[C@@H](c2ccccc2)O[B-](c2ccccc2)(c2ccccc2)[N+]1(C)C,34.3 µM (inactive),34.3 µM (inactive),16.1 µM (inactive),> 100 µM (inactive),> 100 µM (inactive),23.8 µM (inactive),48.5 µM (inactive),27.7 µM (inactive),54.8 µM (inactive),37.7 µM (inactive),76.7 µM (inactive),> 100 µM (inactive),> 100 µM (inactive),79.3 µM (inactive),< 0.01 µM (active),> 100 µM (inactive),,56.5 µM (inactive),52 µM (inactive)
COC12c3ccccc3-c3ccccc3C1[C@H]1C(=O)OC(=O)[C@H]12 (stereo partly specified),> 10 µM (inactive),> 10 µM (inactive),> 10 µM (inactive),> 10 µM (inactive),> 10 µM (inactive),> 10 µM (inactive),> 10 µM (inactive),> 10 µM (inactive),> 10 µM (inactive),> 10 µM (inactive),> 10 µM (inactive),> 10 µM (inactive),> 10 µM (inactive),> 10 µM (inactive),> 10 µM (inactive),> 10 µM (inactive),> 10 µM (inactive),> 10 µM (inactive),
O=[N+]([O-])c1nccn1CCCNc1c2ccccc2[n+]([O-])c2ccccc12,> 100 µM (inactive),> 100 µM (inactive),18.2 µM (inactive),> 100 µM (inactive),> 100 µM (inactive),27.5 µM (inactive),> 100 µM (inactive),> 100 µM (inactive),> 100 µM (inactive),38.6 µM (inactive),> 100 µM (inactive),50.2 µM (inactive),> 100 µM (inactive),> 100 µM (inactive),> 100 µM (inactive),88.5 µM (inactive),> 100 µM (inactive),> 100 µM (inactive),> 100 µM (inactive)
